# Laboratory results: US20120122840A1, “COMPOUNDS AND THERAPEUTIC USES THEREOF” (Myrexis, Inc., priority 2009, published 2012)
# Peptide text beside a SMILES is read from it. * marks the point of attachment. Cbz = O=C(OCc1ccccc1)*; CH2F = FC*
# Tests used:
# HeLa cells = assay: Cell cycle progression after double thymidine block (propidium iodide, flow cytometry); assay type: cell-based; conditions: VX-680 at 500 nM
# Experimental: HeLa cells were synchronized in the G1 phase of the cell cycle using a double thymidine block. The cells were released from the block by removing the media and replacing it with media containing DMSO, 500 nM VX-680 (Aurora inhibitor), or a TTK inhibitor. At the indicated time points, cells were fixed with methanol, permeabilized and stained with propidium iodide. DNA content was analyzed using a Guava EasyCyte flow cytometer.
# This is due to improper spindle formation and chromosome segregation followed by failed cytokinesis. Previously, it has been shown that inhibition of TTK using siRNA results in chromosome missegregation and mitotic defects. Using TTK inhibitors of the present invention, defects in chromosome segregation were observed. Therefore, the effect of the TTK inhibitors of the present invention were analyzed for their effect on cell cycle progression and/or DNA content.
# Aurora A [1] = biological target: T1, Aurora A (Homo sapiens, UniProt O14965); assay: Direct target affinity purification (DTAP) from cell lysates; assay type: binding; conditions: compound coupled to Sepharose beads
# T1 sequence (O14965 1-403): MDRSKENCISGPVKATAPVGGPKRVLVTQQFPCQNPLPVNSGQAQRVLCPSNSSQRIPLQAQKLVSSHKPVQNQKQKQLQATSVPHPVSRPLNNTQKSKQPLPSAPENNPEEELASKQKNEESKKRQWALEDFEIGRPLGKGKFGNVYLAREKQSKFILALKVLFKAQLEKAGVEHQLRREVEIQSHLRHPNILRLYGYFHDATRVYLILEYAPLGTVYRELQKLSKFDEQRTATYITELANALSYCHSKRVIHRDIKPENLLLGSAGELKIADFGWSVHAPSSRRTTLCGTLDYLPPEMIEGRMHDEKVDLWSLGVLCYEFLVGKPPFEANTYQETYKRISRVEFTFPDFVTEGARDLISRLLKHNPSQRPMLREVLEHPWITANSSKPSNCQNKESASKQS
# From the text: (§1) Direct target affinity purification (DTAP) was used to investigate (1) the selectivity of compounds of the invention for TTK, relative to other kinases, and (2) the importance of a specific methyl substituent in providing that selectivity.
# (§2) In preparation for DTAP studies, the two compounds depicted above were synthesized with an alkyl-amine linker to allow covalent coupling to epoxy-activated Sepharose 6B beads (GE Healthcare, Piscataway, N.J.). Sepharose beads were swollen and washed with water for 30 min followed by equilibration in coupling buffer (50% dimethylformamide, 50 mM Na2CO3). Beads were pelleted by centrifugation (15 sec at 2000×g) and the supernatant removed by aspiration. An equal volume of coupling buffer containing the linkered test compound was used to resuspend the beads. Compound concentrations in the coupling reaction ranged from 0.1 mM to 12.5 mM. The coupling reactions were incubated at 34° C. for 18 hrs on a rotator mixer. Ethanolamine was added to 1 M for the final 1 hr to quench the coupling reaction. Beads were washed extensively with binding buffer (1 M NaCl, 50 mM Hepes [pH 7.4], 1% Triton X-100, 1 mM EDTA and 1 mM dithiothreitol) to remove residual coupling reagents, and were then stored at 4° C.
# (§3) Cellular proteins were prepared by mild sonication in lysis buffer (150 mM NaCl, 50 mM Hepes [pH 7.4], 1% Triton X-100, 1 mM EDTA and 2 mM dithiothrietol containing 1× Halt™ protease and phosphatase inhibitor cocktail [Thermo Fisher Scientific, Rockford, Ill.]). Lysates were centrifuged (20,000×g for 20 min) to remove debris, diluted to a protein concentration of ˜5 mg/ml, divided into aliquots, and stored at −80° C.
# (§4) For DTAP reactions, cell lysates (˜0.5 ml per binding reaction) were thawed and the NaCl concentration adjusted to 1 M. Competitor compounds dissolved in DMSO (or a DMSO control) were then added to the lysate and incubated on ice for 5 min. The lysates were centrifuged at 20,000×g for 10 min and the cleared supernatant was transferred to a tube containing 50 μl of coupled beads. The binding reactions were incubated on a rotator mixer at 4° C. for 2 hrs, after which the beads were pelleted by centrifugation and the supernatant removed by aspiration. The beads were washed three times with 20 volumes of binding buffer, 2× with 20 volumes wash buffer (150 mM NaCl, 50 mM Hepes [pH 7.4], 1% Tween 20, 1 mM EDTA, 2 mM dithiothrietol) and finally twice with 10 volumes of 150 mM NaCl, 50 mM Hepes [pH 7.4].
# (§5) During the final wash, an aliquot containing 10 μl of beads was transferred to a separate tube and resuspended with 15 μl of 2× SDS/PAGE loading buffer (Invitrogen Corporation, Carlsbad, Calif.) for 5 min at 90° C. The eluted proteins were resolved by electrophoresis on a NuPage 4-12% Bis-Tris Gel (Invitrogen Corporation, Carlsbad, Calif.) and visualized by staining with Ruby Red (Invitrogen Corporation, Carlsbad, Calif.). The remaining beads (40 μl) were processed for analysis by mass spectrometry.
# FER [2] = biological target: T2, FER (Homo sapiens, UniProt P16591); assay: as above; assay type: binding; conditions: compound coupled to Sepharose beads
# T2 sequence (P16591 whole entry, species assumed): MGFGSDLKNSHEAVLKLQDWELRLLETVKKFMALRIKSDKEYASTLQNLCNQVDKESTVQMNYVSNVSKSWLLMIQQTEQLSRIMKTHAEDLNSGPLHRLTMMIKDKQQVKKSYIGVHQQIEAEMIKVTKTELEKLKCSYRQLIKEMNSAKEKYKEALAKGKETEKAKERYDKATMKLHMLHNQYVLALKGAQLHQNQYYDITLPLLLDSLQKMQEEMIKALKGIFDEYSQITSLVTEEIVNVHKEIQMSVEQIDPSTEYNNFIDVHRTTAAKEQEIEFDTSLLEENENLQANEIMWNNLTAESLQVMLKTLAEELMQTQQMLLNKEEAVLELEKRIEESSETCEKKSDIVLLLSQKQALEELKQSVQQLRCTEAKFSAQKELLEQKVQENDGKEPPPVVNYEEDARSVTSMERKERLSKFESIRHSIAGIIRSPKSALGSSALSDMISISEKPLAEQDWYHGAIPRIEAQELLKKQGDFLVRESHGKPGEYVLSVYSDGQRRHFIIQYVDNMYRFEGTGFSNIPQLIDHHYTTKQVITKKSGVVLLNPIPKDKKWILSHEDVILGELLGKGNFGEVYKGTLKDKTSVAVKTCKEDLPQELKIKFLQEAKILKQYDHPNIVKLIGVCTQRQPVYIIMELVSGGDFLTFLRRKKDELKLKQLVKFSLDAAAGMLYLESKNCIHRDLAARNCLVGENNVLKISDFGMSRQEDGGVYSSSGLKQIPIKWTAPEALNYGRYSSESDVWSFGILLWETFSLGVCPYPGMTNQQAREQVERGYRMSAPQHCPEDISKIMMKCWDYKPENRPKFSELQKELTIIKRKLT
# From the text: as §1, §2, §3, §4, §5
# JAK1 [3] = biological target: T3, JAK1 (Homo sapiens, UniProt P23458); assay: as above; assay type: binding; conditions: compound coupled to Sepharose beads
# T3 construct: Cellular proteins were prepared by mild sonication in lysis buffer; endogenous in cells
# T3 sequence (P23458 whole entry, species assumed): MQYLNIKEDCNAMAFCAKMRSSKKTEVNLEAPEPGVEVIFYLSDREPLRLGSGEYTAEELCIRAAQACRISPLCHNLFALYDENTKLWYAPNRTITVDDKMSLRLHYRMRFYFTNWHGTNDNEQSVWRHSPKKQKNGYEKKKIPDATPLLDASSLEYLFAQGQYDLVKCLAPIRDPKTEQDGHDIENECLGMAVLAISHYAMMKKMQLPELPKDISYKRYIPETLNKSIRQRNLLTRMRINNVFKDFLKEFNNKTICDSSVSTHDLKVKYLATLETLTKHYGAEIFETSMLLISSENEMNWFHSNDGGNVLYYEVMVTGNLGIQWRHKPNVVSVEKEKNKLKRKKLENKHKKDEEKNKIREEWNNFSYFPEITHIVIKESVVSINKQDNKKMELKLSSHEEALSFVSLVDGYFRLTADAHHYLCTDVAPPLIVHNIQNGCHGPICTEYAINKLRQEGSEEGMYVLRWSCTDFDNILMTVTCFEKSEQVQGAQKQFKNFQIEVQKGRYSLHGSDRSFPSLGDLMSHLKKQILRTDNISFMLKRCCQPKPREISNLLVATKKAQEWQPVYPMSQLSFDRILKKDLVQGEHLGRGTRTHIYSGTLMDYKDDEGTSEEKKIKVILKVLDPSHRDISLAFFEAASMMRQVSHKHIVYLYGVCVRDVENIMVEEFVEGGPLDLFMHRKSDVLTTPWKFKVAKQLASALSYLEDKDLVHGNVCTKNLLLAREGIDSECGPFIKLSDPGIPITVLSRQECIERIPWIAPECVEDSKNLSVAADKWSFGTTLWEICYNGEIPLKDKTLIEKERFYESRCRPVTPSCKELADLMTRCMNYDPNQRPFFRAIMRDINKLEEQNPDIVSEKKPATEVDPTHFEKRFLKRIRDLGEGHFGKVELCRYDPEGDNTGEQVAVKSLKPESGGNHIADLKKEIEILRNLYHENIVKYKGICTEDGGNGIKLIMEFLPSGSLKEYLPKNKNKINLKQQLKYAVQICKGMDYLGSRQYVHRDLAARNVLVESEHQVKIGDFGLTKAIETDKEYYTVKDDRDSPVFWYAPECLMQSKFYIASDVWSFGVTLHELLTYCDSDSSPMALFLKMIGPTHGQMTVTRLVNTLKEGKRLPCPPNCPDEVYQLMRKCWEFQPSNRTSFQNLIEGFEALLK
# From the text: as §1, §2, §3, §4, §5
# JNK [4] = biological target: T4, JNK (Homo sapiens, UniProt P45983); assay: as above; assay type: binding; conditions: compound coupled to Sepharose beads
# T4 sequence (P45983 whole entry): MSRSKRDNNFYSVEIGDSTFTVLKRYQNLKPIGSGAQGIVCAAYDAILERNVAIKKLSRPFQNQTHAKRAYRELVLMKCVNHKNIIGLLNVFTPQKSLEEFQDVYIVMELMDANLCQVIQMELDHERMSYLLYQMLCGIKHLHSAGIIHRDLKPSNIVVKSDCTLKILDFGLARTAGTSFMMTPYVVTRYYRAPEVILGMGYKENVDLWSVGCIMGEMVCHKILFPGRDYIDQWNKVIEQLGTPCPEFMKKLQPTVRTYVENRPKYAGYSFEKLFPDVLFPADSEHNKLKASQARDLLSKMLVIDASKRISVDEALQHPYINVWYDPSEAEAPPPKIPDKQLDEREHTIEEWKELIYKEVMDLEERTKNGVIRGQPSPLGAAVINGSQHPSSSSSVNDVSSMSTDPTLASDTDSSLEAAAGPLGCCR
# From the text: as §1, §2, §3, §4, §5
# Aurora A [5] = biological target: T1, Aurora A; assay: In vitro binding assays
# FER [6] = biological target: T2, FER; assay: In vitro binding assays
# JNK [7] = biological target: T4, JNK; assay: In vitro binding assays
# JAK1 [8] = biological target: T3, JAK1; assay: In vitro binding assays
# TTK = biological target: T5, TTK (Homo sapiens, UniProt P33981); assay: TTK inhibition assay ([γ-33P]ATP transfer to phosphorylated MBP); assay type: biochemical; set-up: A. Recombinant TTK enzyme; conditions: read-out: inhibition of the protein kinase activity of TTK, IC50
# T5 sequence (P33981 1-857): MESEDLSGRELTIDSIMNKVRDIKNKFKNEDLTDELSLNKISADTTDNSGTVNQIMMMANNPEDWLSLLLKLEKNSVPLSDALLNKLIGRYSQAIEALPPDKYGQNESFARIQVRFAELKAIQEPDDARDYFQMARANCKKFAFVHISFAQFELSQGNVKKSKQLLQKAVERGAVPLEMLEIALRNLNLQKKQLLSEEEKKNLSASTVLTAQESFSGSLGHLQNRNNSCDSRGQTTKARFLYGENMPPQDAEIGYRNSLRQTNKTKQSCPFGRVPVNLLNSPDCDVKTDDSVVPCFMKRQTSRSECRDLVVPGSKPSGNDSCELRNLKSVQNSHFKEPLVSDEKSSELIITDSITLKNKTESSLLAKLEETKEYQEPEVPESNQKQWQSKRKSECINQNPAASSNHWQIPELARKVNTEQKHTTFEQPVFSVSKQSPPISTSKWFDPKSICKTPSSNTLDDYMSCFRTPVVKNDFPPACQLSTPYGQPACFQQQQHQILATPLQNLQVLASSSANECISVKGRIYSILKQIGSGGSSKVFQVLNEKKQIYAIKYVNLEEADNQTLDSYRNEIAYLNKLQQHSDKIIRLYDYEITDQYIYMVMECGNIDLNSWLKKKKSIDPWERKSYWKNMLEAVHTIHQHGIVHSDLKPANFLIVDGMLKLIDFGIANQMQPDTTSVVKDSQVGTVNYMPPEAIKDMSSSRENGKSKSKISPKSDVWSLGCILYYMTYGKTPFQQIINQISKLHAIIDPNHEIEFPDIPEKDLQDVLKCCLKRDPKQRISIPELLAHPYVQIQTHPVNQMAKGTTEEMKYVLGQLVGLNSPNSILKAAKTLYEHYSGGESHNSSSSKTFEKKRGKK
# Experimental: The compounds of the invention were also tested in the following assay to determine TTK-inhibitory activity. This assay measures transfer of radioactive phosphate from ATP to a protein substrate in the presence or absence of a test compound.
# MATERIALS: • A. Recombinant TTK enzyme; • B. Phosphorylated myelin basic protein (MBP); • C. [γ-^33P]ATP: 1 mCi/100 μL; • D. Positive Control: a proprietary compound known to have […] in this assay.
# Final concentrations of reaction mixture components (50 μl total volume): 50 mM Tris-HCl, pH 7.5; 0.01% Triton X-100; 10 mM MgCl2; 25 ng TTK (˜4 nM); 5 μM Phosphorylated MBP; 40 μM ATP (1 μCi/well, adjusted ATP specific activity according to strength of radiolabeled ATP).
# Mixes were assembled in the wells of a 96-well polypropylene plate as follows: 1 μL 50× compound to be tested; 39 μL 1.282× Reaction Mix; 10 μL 5×ATP Mix.
# The following reaction/assay steps were then performed: • 1. Mix thoroughly and incubate at room temperature for 45 minutes; • 2. Add 70 μL/well, except in background wells, of 3% phosphoric acid to terminate reaction, and transfer 100 μL to P81 filter plate; • 3. Wash with 1% phosphoric acid, then dry the P81 filter plate completely; • 4. Add 100 μL/well MicroSint-20 (PerkinElmer #6013621) and seal; • 5.
# [9] = test system: p53 on serine 15 and H2AX on serine 139; assay: Effect of ATM, ATM/ATR and DNA-PK inhibitors on Compound A-induced phosphorylation in HCT-116 cells; assay type: cell-based; conditions: 5 μM inhibitor with 1 μM Compound A
# Experimental: Phosphorylation of either p53 on serine 15 or H2AX on serine 139 is often mediated by the DNA damage checkpoint proteins, ATM or ATR. […] As a positive control, cells were treated with the UV mimetic 4-NQO (5 μM). Cell lysates were analyzed by Western blot with anti-p53, anti-p53-pS15, anti-H2AX-pS139 and anti-GAPDH antibodies (see FIGS. 6A-6C). […] Phosphorylation of p53 on serine 15 and H2AX on serine 139 appears mediated by ATR kinase in response to TTK inhibition.
# HCT-116 cells = assay: Effect of caspase inhibition on Compound A responses in HCT-116 cells; assay type: cell-based
# Experimental: Caspase 3/7 activity was determined with a Caspase-Glo 3/7 assay (see FIG. 7A). Cell lysates were analyzed by Western blot with antibodies specific for H2AX-pS139, p53-pS15, p53 or GAPDH (see FIG. 7B).
smiles,measurement,setting,value
Cc1cc(Nc2cc(N3CCN(C)CC3)nc(Sc3ccc(NC(=O)C4CC4)cc3)n2)n[nH]1 [VX-680],DNA content / cell cycle progression after release from G1 block,HeLa cells,causes cells to become tetraploid
"Cc1cc(OCCCN)ccc1Nc1nc(NC2CCCCC2)c2nc[nH]c2n1 [N2-(4-(3-Aminopropoxy)-2-methylphenyl)-N6-cyclohexyl-9H-purine-2,6-diamine]",binding of Aurora A from cell lysates to bead-coupled compound,Aurora A [1],failed to bind
same,binding of FER from cell lysates to bead-coupled compound,FER [2],reduced affinity
same,binding of JAK1 from cell lysates to bead-coupled compound,JAK1 [3],reduced affinity
same,binding of JNK from cell lysates to bead-coupled compound,JNK [4],reduced affinity
same,IC50,Aurora A [5],> 5000 nM
same,IC50,FER [6],380 nM
same,IC50,JNK [7],120 nM
same,IC50,JAK1 [8],> 5000 nM
same,IC50,TTK,3 nM
O=c1cc(-c2cccc3c2Sc2ccccc2S3)oc(N2CCOCC2)c1 [KU-55933],effect on p53 (and H2AX) phosphorylation in response to Compound A,[9],had no effect
COC(=O)C[C@H](NC(=O)[C@H](C)NC(=O)[C@@H](NC(=O)OCc1ccccc1)C(C)C)C(=O)CF [Z-VAD-FMK] (Cbz-Val-Ala-Asp(OMe)-CH2F),effect on TTK inhibitor-induced H2AX phosphorylation,"HCT-116 cells; 100 μM Z-VAD-FMK 1 hour before 1 μM Compound A, 48 hours",prevents TTK inhibitor-induced H2AX phosphorylation
same,effect on TTK inhibitor-induced p53 phosphorylation and on cell viability,"HCT-116 cells; 100 μM Z-VAD-FMK pre-treatment, viability after 72 hours (Cell Titer-Glo)",has no effect on either p53 phosphorylation or cell viability
O=C(NC(NC(=S)Nc1ccc(F)c([N+](=O)[O-])c1)C(Cl)(Cl)Cl)C(c1ccccc1)c1ccccc1 (centres unmarked) [CGK733],effect on p53 (and H2AX) phosphorylation in response to Compound A,[9],blocked p53 and H2AX phosphorylation
